Values joined by “and” are separate entries in the source; they are usually repeats but may differ in a detail not shown here. Equal values may be shown once. Read-outs that look alike come from different tables or passages of the source.
Assays:
[1] = system: CHO/C5-PCFT cells; assay: Growth inhibition, SRB assay, CHO/C5-PCFT (PCFT-transfected); assay type: cell-based, Chinese hamster
Method: (§1) Briefly, cells were seeded in triplicate in 96-well plates at their pre-established optimal density (CHO cells: 2,500 cells/100 μL; WiDr and HT29: 3,500 cells/100 μL; WiDr-LF/LV, LS174T: 5,000 cells/100 μL; CaCo2, CaCo2-LF/LV, H292, H28 and MSTO-211H: 6,000 cells/100 μL; H460, SW948 and SW1398: 7,000 cells/100 μL) and were allowed to attach for ∼ 24 h at 37°C in 5% CO2 and 100% humidified incubator. Thereafter, 100 μL of drug dilution without LV, or with 5 μM l-LV/5 μM d-LV/10 μM dL-LV (or any LV alone) were added. Cells were allowed to grow for 72 h at 37°C in 5% CO2 and 100% humidity. The t = 0 h control plate consisted of cells plated on the same day as the other cells, but after 24 h at 37°C in 5% CO2 and 100% humidity, only 100 μL medium was added and the cells were fixed immediately with 50% trichloroacetic acid (TCA) in milliQ water (25 μL per well) and put at 4°C for at least 1 h. Plates were washed five times with water and dried. Cells were stained with the SRB protein dye (0.4% (w/v) in 1% acetic acid. Excess dye was washed away four times with 1% acetic acid and plates were dried again. 200 μL of Tris (10 mM Tris (hydroxymethyl)-aminomethane in MQ) was added and optical density (OD) was read at 492 nm after mixing 2–3 min on a plate shaker.

[2] = system: MSTO-211H cells; assay: Growth inhibition, SRB assay, MSTO-211H (MPM); assay type: cell-based, human; details: SRB, read-out: IC50, 72 h drug exposure
Method: as §1

[3] = system: H292 cells; assay: Growth inhibition, SRB assay, H292 (NSCLC); assay type: cell-based, human; details: H292, SRB, read-out: IC50, 72 h drug exposure
Method: as §1

[4] = system: CHO/C5-MOCK cells; assay: Growth inhibition, SRB assay, CHO/C5-MOCK (empty vector); assay type: cell-based, Chinese hamster
Method: as §1

[5] = system: H460 cells; assay: Growth inhibition, SRB assay, H460 (NSCLC); assay type: cell-based, human; details: H460, SRB, read-out: IC50, 72 h drug exposure
Method: as §1

[6] = system: AA8 cells; assay: Growth inhibition, SRB assay, AA8 (parental CHO); assay type: cell-based, Chinese hamster; details: AA8 parental CHO
Method: as §1

[7] = system: H28 cells; assay: Growth inhibition, SRB assay, H28 (MPM); assay type: cell-based, human; details: H28, SRB, read-out: IC50, 72 h drug exposure
Method: as §1

[8] = system: CHO/C5-hRFC cells; assay: Growth inhibition, SRB assay, CHO/C5-hRFC (human RFC transfected); assay type: cell-based, Chinese hamster; details: for IC50: CHO/C5-hRFC
Method: as §1

[9] = system: CHO/C5 cells; assay: Growth inhibition, SRB assay, CHO/C5 (RFC-deficient); assay type: cell-based, Chinese hamster
Method: as §1

[10] = biological target: T1, human PCFT (Homo sapiens, UniProt Q96NT5); assay: Inhibition of PCFT-mediated [3H]-l-LV influx in CHO/C5-PCFT cells; assay type: cell-based, Chinese hamster (CHO cells)
T1 construct: expressed in transfected cells; host or cells: CHO/C5 (RFC-deficient Chinese hamster ovary cells, no PCFT)
T1 sequence (Q96NT5 1-459): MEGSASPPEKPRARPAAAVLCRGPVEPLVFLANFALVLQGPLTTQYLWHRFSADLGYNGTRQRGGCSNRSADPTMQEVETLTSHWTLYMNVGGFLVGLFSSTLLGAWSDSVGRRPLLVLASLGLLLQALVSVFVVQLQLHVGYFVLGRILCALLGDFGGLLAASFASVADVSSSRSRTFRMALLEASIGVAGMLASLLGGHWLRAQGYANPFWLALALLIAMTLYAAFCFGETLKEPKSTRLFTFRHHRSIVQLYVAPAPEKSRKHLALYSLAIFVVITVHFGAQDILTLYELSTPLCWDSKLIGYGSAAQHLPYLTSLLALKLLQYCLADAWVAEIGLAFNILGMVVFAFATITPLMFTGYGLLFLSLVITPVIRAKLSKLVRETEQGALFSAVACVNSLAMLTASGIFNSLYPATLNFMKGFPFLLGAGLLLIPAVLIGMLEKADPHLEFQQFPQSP
Method: (§2) In order to determine whether the LV isomers were substrates for either folate receptor α (FRα), RFC and/or PCFT, we used model systems with established overexpression of these receptors or transporters ([Westerhof et al., 1995a]; [Westerhof et al., 1995b]; [Lasry et al., 2008]; [Van der Heijden et al., 2009]).
The competitive inhibition by 2.5 μM [^3H]-l-LV influx of PCFT was measured essentially as described for the RFC assay, except that the incubation time was 3 min, at pH 5.5 (the optimal pH for PCFT) and pH 7.4 with increasing amounts of unlabelled LV stereoisomers/antifolate drug. For PCFT too, relative affinities were expressed as the concentration of unlabelled drug necessary to inhibit 50% of [^3H]-l-LV influx.

[11] = biological target: T2, reduced folate carrier (RFC/SLC19A1) (Homo sapiens, UniProt P41440); assay: Inhibition of RFC-mediated [3H]-l-LV influx in CEM-7A cells; assay type: cell-based
T2 construct: CEM-7A cells, which display 30-fold RFC overexpression relative to wild-type CCRF-CEM cells; endogenous in cells; host or cells: CEM-7A (CCRF-CEM variant, RFC+++ 30-fold)
T2 sequence (P41440 1-591): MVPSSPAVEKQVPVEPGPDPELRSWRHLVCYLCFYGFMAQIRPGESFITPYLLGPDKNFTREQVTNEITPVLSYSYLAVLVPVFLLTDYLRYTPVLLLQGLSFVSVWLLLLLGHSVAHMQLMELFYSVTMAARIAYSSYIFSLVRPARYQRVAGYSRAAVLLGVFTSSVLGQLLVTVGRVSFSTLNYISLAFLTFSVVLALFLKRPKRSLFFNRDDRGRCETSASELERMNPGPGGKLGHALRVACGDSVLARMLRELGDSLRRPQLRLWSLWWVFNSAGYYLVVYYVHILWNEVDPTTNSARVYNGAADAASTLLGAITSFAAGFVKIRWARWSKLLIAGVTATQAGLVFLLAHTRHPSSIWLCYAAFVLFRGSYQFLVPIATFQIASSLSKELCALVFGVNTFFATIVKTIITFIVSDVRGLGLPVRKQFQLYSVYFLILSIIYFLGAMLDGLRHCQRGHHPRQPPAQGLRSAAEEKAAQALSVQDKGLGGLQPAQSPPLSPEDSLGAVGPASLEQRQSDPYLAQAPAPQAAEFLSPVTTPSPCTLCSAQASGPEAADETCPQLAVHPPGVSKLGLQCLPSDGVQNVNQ
Method: as §2
CEM-7A cells (2 × 10^6) were suspended in 1 mL HBSS and the assay was initiated by addition of 25 μL 200 μM [^3H]-l-LV; 5,000 pmol (i.e., 5 μM final concentration). Incubations proceeded for 2 min at 37°C in the absence and presence of increasing amounts of unlabelled LV/antifolate drug. Blanks consisted of a separate incubation at 4°C or incubation with 100-fold molar excess of unlabelled l-LV. [^3H]-l-LV influx was terminated by adding 9 mL ice-cold HBSS, centrifugation and an additional wash of the cells with 10 mL ice-cold buffer. Cell pellets were then assessed for radioactivity. Relative affinities for RFC are expressed as the concentration of unlabelled drug necessary to inhibit [^3H]-l-LV uptake by 50%.

[12] = system: colon cancer cell lines; assay: Growth inhibition, SRB assay, panel of colon cancer cell lines; assay type: cell-based, human; details: selected colon cancer cell lines: WiDr, HT29, SW948 and SW1398 cells; 5 µM l-LV
Method: as §1

[13] = biological target: T3, folate receptor α (FRα) (Homo sapiens, UniProt P15328); assay: Intact cell competitive binding assay, displacement of [3H]-folic acid from FRα in KB cells
T3 construct: endogenous in cells; host or cells: KB cells (FRα++)
T3 sequence (P15328 25-257): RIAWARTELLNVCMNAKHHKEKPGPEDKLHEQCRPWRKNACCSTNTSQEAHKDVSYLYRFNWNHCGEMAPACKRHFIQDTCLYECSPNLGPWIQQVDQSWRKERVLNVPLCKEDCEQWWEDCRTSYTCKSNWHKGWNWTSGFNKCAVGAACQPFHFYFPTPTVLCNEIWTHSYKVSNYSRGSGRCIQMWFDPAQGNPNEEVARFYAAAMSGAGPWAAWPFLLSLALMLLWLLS
Method: as §2
For FRα we used KB cells ([Westerhof et al., 1995b]). An intact cell binding assay for competitive binding was performed as described previously ([Westerhof et al., 1995a]). Briefly, cells were washed with Hanks balanced salt solution and 6 mM glucose (HBSS, pH 7.4), suspended in 1 mL of this solution (1*10^6 for KB cells) and incubated at 4°C for 15 min with 100 pmol [^3H]-folic acid [(^3H)-FA], in the presence and absence of unlabelled folic acid or LV stereoisomers. Cells were collected by centrifugation and analysed for radioactivity. Relative affinities for FRα were defined as the inverse ratio of compound to displace 50% of radioactive folic acid from FRα. The relative affinity of folic acid was set at 1.

[14] = Cricetulus griseus, antifolate alone

**Q.** What does the source list for `Cc1nc2ccc(CN(C)c3ccc(C(=O)N[C@@H](CCC(=O)O)C(=O)O)s3)cc2c(=O)[nH]1` [RTX, raltitrexed]?
**A.** IC50 [1, 14]: 4.33 µM; IC50 ([1]; antifolate + 5 µM l-LV): 52.6 µM; IC50 ([2]; Homo sapiens, 72 h, antifolate alone): 0.008 ± 0.0005 µM; IC50 ([2]; antifolate + 5 µM l-LV): 4.58 µM; IC50 ([3]; antifolate + 5 µM l-LV): 6.33 µM; IC50 ([3]; Homo sapiens, NCI-H292, 72 h, antifolate alone): 0.014 ± 0.0008 µM; IC50 [4, 14]: 2.4 µM; IC50 ([4]; antifolate + 5 µM l-LV): > 100 µM; IC50 ([5]; antifolate + 5 µM l-LV): 19.8 µM; IC50 ([5]; Homo sapiens, NCI-H460, 72 h, antifolate alone): 0.022 ± 0.0009 µM; IC50 ([6]; antifolate + 5 µM l-LV): 2.92 µM; IC50 [6, 14]: 0.019 µM; IC50 ([7]; antifolate + 5 µM l-LV): 4.26 µM; IC50 ([7]; Homo sapiens, NCI-H28, 72 h, antifolate alone): 0.136 ± 0.016 µM; IC50 ([8]; antifolate + 5 µM l-LV): 11.7 µM; IC50 [8, 14]: 0.008 µM; Protection by l-LV, increase of the IC50 value ([8]; hRFC-transfected cells, 5 µM l-LV): 1462 fold; IC50 [9, 14]: 2.73 µM; IC50 ([9]; antifolate + 5 µM l-LV): 6.68 µM

**Q.** Which “PCFT substrate affinity of l-LV over d-LV” value [10] does the source give for `Nc1nc2c(c(=O)[nH]1)N(C=O)C(CNc1ccc(C(=O)N[C@@H](CCC(=O)O)C(=O)O)cc1)CN2` (stereo partly drawn) [l-LV, 5-formyltetrahydrofolate] here?
**A.** Its value is 3.5 fold.

**Q.** And the IC50 ([10]; CHO/C5/PCFT cells, 2.5 µM [3H]-l-LV, pH 5.5, 3 min, read-out: Concentration for 50% inhibition of PCFT-mediated [3H]-l-LV influx)?
**A.** Its IC50 is 4 µM.

**Q.** And the “RFC substrate affinity of l-LV over d-LV” value [11]?
**A.** The value was 8 fold.

**Q.** What about the IC50 ([11]; 5 µM [3H]-l-LV, 2 min, 37°C, read-out: Concentration for 50% inhibition of [3H]-l-LV influx (RFC)) of the same molecule?
**A.** The IC50 was 5.5 µM.

**Q.** What about the “Modulation (enhanced efficacy) of 5FU” value [12] of the same molecule?
**A.** Its value is 2 fold.

**Q.** What about the “Molar excess over folic acid required for displacement of [3H]-FA binding from FRα” value [13] of the same molecule?
**A.** Its value is 15 fold.

**Q.** What about the “Relative affinity for FRα” value ([13]; 100 pmol [3H]-FA, inverse ratio of amount of drug displacing 50% of [3H]-FA, FA set to 1) of the same molecule?
**A.** The value was 0.073.

**Q.** With `Nc1nc(=O)c2c([nH]1)NC[C@H](CNc1ccc(C(=O)N[C@@H](CCC(=O)O)C(=O)O)cc1)N2C=O` [[^3H]-l-LV, [3′,5′,7,9-^3H(N)]-(6S)-Leucovorin] as the molecule, how does the “PCFT influx rate of [3H]-l-LV at pH 7.4 compared to pH 5.5” value ([10]; CHO/C5/PCFT cells, 2.5 µM [3H]-l-LV) read?
**A.** The value was 11% and 11.5%.

— PMC11371747, “The role of l-leucovorin uptake and metabolism in the modulation of 5-fluorouracil efficacy and antifolate toxicity” (Frontiers in Pharmacology, 2024)
